In patent publication US6306860A, “2,5-pyridinedicarboxylic acid derivatives” (Dong Wha Pharm. Inc. Co., Ltd., priority 1998, dated 2001):

Assays:
HBV polymerase = target: T1, HBV polymerase (Hepatitis B virus genotype D subtype ayw, UniProt P03156); assay: Inhibitory activities against HBV polymerase (reverse transcriptase activity) in vitro; format: biochemical; details: read-out: Inhibitory activity of HBV-RT (%); for inhibition at 0.01 µg/mL: 0.01 μg/ml; for inhibition at 0.1 µg/mL: 0.1 μg/ml; for inhibition at 1 µg/mL: 1 μg/ml
T1 construct: made in house; host or cells: E. coli
T1 sequence (P03156 whole entry): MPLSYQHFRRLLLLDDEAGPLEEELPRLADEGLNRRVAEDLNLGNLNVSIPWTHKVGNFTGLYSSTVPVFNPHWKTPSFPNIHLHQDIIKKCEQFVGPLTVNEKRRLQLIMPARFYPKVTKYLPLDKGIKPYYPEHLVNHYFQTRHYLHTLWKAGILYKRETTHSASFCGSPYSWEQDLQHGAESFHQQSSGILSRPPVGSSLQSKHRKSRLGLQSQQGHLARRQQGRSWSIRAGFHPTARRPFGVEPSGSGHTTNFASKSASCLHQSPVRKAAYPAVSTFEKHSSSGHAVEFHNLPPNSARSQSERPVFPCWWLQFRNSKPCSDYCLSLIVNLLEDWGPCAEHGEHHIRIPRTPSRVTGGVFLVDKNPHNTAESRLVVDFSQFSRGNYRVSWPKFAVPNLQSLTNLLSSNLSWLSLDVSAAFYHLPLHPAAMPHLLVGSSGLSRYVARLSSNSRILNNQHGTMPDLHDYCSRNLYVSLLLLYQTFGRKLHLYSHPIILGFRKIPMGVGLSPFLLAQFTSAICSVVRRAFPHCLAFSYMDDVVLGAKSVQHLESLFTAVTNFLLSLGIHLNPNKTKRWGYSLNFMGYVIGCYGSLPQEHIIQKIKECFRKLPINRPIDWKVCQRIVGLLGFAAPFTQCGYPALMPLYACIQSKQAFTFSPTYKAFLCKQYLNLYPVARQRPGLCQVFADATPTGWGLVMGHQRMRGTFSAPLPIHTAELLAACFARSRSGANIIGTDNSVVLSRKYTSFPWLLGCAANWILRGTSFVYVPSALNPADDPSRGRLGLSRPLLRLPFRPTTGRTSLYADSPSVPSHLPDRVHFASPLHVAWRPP
Text: Experiment 1:Inhibitory Activities Against HBV Polymerase in vitro
Recently, the inventors of the present invention have produced a recombinant HBV polymerase that is expressed from E.coli transformant, measured its enzyme activity and filed patent applications threrof [Korean Pat. Appl. Nos. 94-3918 and 96-33998].
The inventors have also established a method of measuring the reverse transcriptase activity of HBV polymerase in vitro. The fundamental principle is the same as the ELISA method, and after reacting the substrate with biotin- and DIG-modified nucleotide, a method of recognizing the polymerized substrate as anti-DIG antibody with peroxidase was used.
20 μl of HBV polymerase, 20 μl of reaction mixture and 20 μl of test compound was mixed and reacted at 14° C.~30° C. for 18~24 hours. Then, the inhibitory effect of the test compound against reverse transcriptase activity in the HBV polymerase was examined, compared with the results of control tests without the test compound.

[1] = target: T2, HIV reverse transcriptase (Human immunodeficiency virus type 1 group M subtype B, UniProt P04585); assay: In vitro inhibition test against HIV reverse transcriptase; format: biochemical; details: read-out: Inhibitory activity of HIV-RT (%); for inhibition at 0.1 µg/mL: 0.1 μg/ml; for inhibition at 1 µg/mL: 1 μg/ml
T2 construct: purchased Boehringer Mannheim
Protocol: Experiment 2: The in vitro Inhibition Test Against HIV Reverse Transcriptase
The inhibitory activity in vitro was measured using a non-radioactive reverse transcriptase assay Kit (Boehringer Mannheim).
At first, 20 μl(40 ng) of HIV-RT was added to the wells, coated with streptavidin and with the addition of 20 μl reaction mixture containing template/primer hybrid poly(A)/oligo(dT)15 and DIG-(digoxigenin)-dUTP, biotin-dUTP and TTP, 20 μl of test compound was added and reacted at 37° C. for 1 hour. The control without test compound was used for the comparison of related activity. Since DNA containing nucleotide labeled with digoxigenin and biotine was prepared by the action of HIV-RT, it was combined with streptavidin coated at the bottom of the wells. After the reaction was completed, remaining impurities were removed by washing each well with 250 μl buffer solution (pH 7.0) for 30 seconds 5 times and with the addition of 200 μl anti-DIG-POD antibody, the mixture was reacted at 37° C. for 1 hour. For the removal of remaining impurities again, the reacting solution was washed with a buffer solution and with the addition of 200 μl ABTS™ each, a substrate of POD(peroxidase), the solution was reacted at room temperature for 30 minutes. The absorbance was read by ELISA reader at 405 nm for the assay of reverse transcriptase activity and its inhibition activity.

SMILES | inhibition at 0.1 µg/mL (HBV polymerase) | inhibition at 1 µg/mL (HBV polymerase) | inhibition at 0.01 µg/mL (HBV polymerase) | inhibition at 0.1 µg/mL [1] | inhibition at 1 µg/mL [1]
CC(C)Nc1cccnc1N1CCN(C(=O)c2ccc(C(=O)NC(C)(C)CO)cn2)CC1 [Exam. 6, 5-[N-(1,1-dimethyl-2-hydroxyethyl)carbamoyl]-2-[1-[3-(isopropylamino)-2-pyridyl]piperazin-4-yl-carbonyl]pyridine] | 65% | 80% | 62% | 48% | 70%
CC(C)Nc1cccnc1N1CCN(C(=O)c2ccc(C(=O)NC(CO)CO)cn2)CC1 [Exam. 13, 5-[N-[Bis(hydroxymethyl)methyl]carbamoyl]-2-[1-[3-(isopropylamino)-2-pyridyl]piperazin-4-yl-carbonyl]pyridine] | 56% | 72% | 51% | 61% | 80%
CC(C)Nc1cccnc1N1CCN(C(=O)c2ccc(C(=O)N(CCO)CCO)cn2)CC1 [Exam. 16, 5-[N,N-bis(2-hydroxyethyl)carbamoyl]-2-[1-[3-(isopropylamino)-2-pyridyl]piperazin-4-yl-carbonyl]pyridine] | 60% | 70% | 51% | 47% | 68%
CC(C)CNc1cccnc1N1CCN(C(=O)c2ccc(C(=O)NCCO)cn2)CC1 [Exam. 22] | 60% | 86% | 54% | 50% | 60%
CC(C)CNc1cccnc1N1CCN(C(=O)c2ccc(C(=O)NC(C)(C)CO)cn2)CC1 [Exam. 23, 5-[N-(1,1-dimethyl-2-hydroxyethyl)carbamoyl]-2-[1-[3-(isobutylamino)-2-pyridyl]piperazin-4-yl-carbonyl]pyridine] | 71% | 90% | 63% | 46% | 62%
CC(C)NC(=O)c1ccc(C(=O)N2CCN(c3ncccc3NC(C)C)CC2)nc1 [Exam. 24, 2-[1-[3-(isopropylamino)-2-pyridyl]piperazin-4-yl-carbonyl]-5-(N-isopropylcarbamoyl)pyridine] | 51% | 65% | 23% | 30% | 66%
CCNc1cccnc1N1CCN(C(=O)c2ccc(C(=O)NC(C)C)cn2)CC1 [Exam. 25, 2-[1-[3-(ethylamino)-2-pyridyl]piperazin-4-yl-carbonyl]-5-(N-isopropylcarbamoyl)pyridine] | 67% | 85% | 54% | 52% | 75%
CC(C)CNc1cccnc1N1CCN(C(=O)c2ccc(C(=O)NC(C)C)cn2)CC1 [Exam. 26, 2-[1-[3-(isobutylamino)-2-pyridyl]piperazin-4-yl-carbonyl]-5-(N-isopropylcarbamoyl)pyridine] | 66% | 90% | 58% | 45% | 60%
CC(C)NC(=O)c1ccc(C(=O)N2CCN(c3ncccc3N)CC2)nc1 [Exam. 27, 2-[1-(3-amino-2-pyridyl)piperazin-4-yl-carbonyl]-5-(N-isopropylcarbamoyl)pyridine] | 62% | 79% | 43% | 54% | 70%
CC(C)Nc1cccnc1N1CCN(C(=O)c2ccc(C(=O)NC(C)(C)C)cn2)CC1 [Exam. 28, 5-[N-(1,1-dimethylethyl)carbamoyl]-2-[1-[3-(isopropylamino)-2-pyridyl]piperazin-4-yl-carbonyl]pyridine] | 72% | 88% | 61% | 45% | 55%
CC(C)CNC(=O)c1ccc(C(=O)N2CCN(c3ncccc3NC(C)C)CC2)nc1 [Exam. 30, 2-[1-[3-(isopropylamino)-2-pyridyl]piperazin-4-yl-carbonyl]-5-[N-(2-methylpropyl)carbamoyl]pyridine] | 65% | 83% | 61% | 32% | 58%

Now from value to compound, other results behind:

inhibition at 0.1 µg/mL (HBV polymerase) | inhibition at 1 µg/mL (HBV polymerase) | SMILES | inhibition at 0.01 µg/mL (HBV polymerase) | inhibition at 0.1 µg/mL [1] | inhibition at 1 µg/mL [1]
51% | 54% | CC(C)Nc1cccnc1N1CCN(C(=O)c2ccc(C(=O)NCCO)cn2)CC1 [Exam. 1, 5-[N-(2-hydroxyethyl)carbamoyl]-2-[1-[3-(isopropylamino)-2-pyridyl]piperazin-4-yl-carbonyl]pyridine] | 30% |  | 
60% | 71% | CC(C)Nc1cccnc1N1CCN(C(=O)c2ccc(C(=O)NCCCO)cn2)CC1 [Exam. 2, 5-[N-(3-Hydroxypropyl)carbamoyl]-2-[1-[3-(isopropylamino)-2-pyridyl]piperazine-4-yl-carbonyl]pyridine] | 49% |  | 
57% | 74% | CC(C)Nc1cccnc1N1CCN(C(=O)c2ccc(C(=O)N[C@H](C)CO)cn2)CC1 [Exam. 3, 5-[N-[(1R)-2-hydroxy-1-methylethyl]carbamoyl]-2-[1-[3-(isopropylamino)-2-pyridyl]piperazin-4-yl-carbonyl]pyridine] | 41% |  | 
39% | 56% | CC(C)Nc1cccnc1N1CCN(C(=O)c2ccc(C(=O)N[C@@H](C)CO)cn2)CC1 [Exam. 4, 5-[N-[(1S)-2-hydroxy-1-methylethyl]carbamoyl]-2-[1-[3-(isopropylamino)-2-pyridyl]piperazin-4-yl-carbonyl]pyridine] | 30% |  | 
64% | 70% | CC[C@H](CO)NC(=O)c1ccc(C(=O)N2CCN(c3ncccc3NC(C)C)CC2)nc1 [Exam. 7, 5-[N-[(1R)-1-ethyl-2-hydroxyethyl]carbamoyl]-2-[1-[3-(isopropylamino)-2-pyridyl]piperazin-4-yl-carbonyl]pyridine] | 53% |  | 
10% | 35% | CCN(CCO)C(=O)c1ccc(C(=O)N2CCN(c3ncccc3NC(C)C)CC2)nc1 [Exam. 14, 5-[N-ethyl-N-(2-hydroxyethyl)carbamoyl]-2-[1-[3-(isopropylamino)-2-pyridyl]piperazin-4-yl-carbonyl]pyridine] |  |  | 
53% | 66% | CC(C)Nc1cccnc1N1CCN(C(=O)c2ccc(C(=O)N(CCO)c3ccccc3)cn2)CC1 [Exam. 17] | 42% |  | 
69% | 84% | CCNc1cccnc1N1CCN(C(=O)c2ccc(C(=O)NCCO)cn2)CC1 [Exam. 18, 2-[1-[3-(ethylamino)-2-pyridyl]piperazin-4-yl-carbonyl]-5-[N-(2-hydroxyethyl)carbamoyl]pyridine] | 52% |  | 
56% | 72% | CCNc1cccnc1N1CCN(C(=O)c2ccc(C(=O)NC(C)(C)CO)cn2)CC1 [Exam. 19, 5-[N-(1,1-dimethyl-2-hydroxyethyl)carbamoyl]-2-[1-[3-(ethylamino)-2-pyridyl]piperazin-4-yl-carbonyl]pyridine] | 32% |  | 
67% | 74% | Nc1cccnc1N1CCN(C(=O)c2ccc(C(=O)NCCO)cn2)CC1 [Exam. 20, 2-[1-(3-Amino-2-pyridyl)piperazine4-yl-carbonyl]-5-[N-(2-hydroxyethyl)carbamoyl]pyridine] | 54% |  | 
62% | 70% | CC(C)(CO)NC(=O)c1ccc(C(=O)N2CCN(c3ncccc3N)CC2)nc1 [Exam. 21, 2-[1-(3-amino-2-pyridyl)piperazin-4-yl-carbonyl]-5-[N-(1,1-dimethyl-2-hydroxyethyl)carbamoyl]pyridine] | 38% |  | 
46% | 71% | CC(C)CNc1cccnc1N1CCN(C(=O)c2ccc(C(=O)Nc3ncccc3O)cn2)CC1 [Exam. 86] | 13% |  | 
